Results reported in patent US9725414B2, “Fungicidal N-bicycloalkyl and N-tricycloalkyl pyrazole-4-(thio)carboxamide derivatives” (priority 2011, dated 2017).

Assays:
Sphaerotheca fuliginea [1] = assay: Example A: in vivo preventive test on Sphaerotheca fuliginea (cucumber); conditions: 500 ppm of active ingredient, evaluated 7 days after inoculation
Procedure: In Vivo Preventive Test on Sphaerotheca fuliginea (Cucumber) Solvent: 49 parts by weight of N,N-dimethylformamide Emulsifier: 1 part by weight of alkylarylpolyglycolether To produce a suitable preparation of active compound, 1 part by weight of active compound is mixed with the stated amounts of solvent and emulsifier, and the concentrate is diluted with water to the desired concentration. To test for preventive activity, young plants are sprayed with the preparation of active compound at the stated rate of application. One day after this treatment, the plants are inoculated with an aqueous spore suspension of Sphaerotheca fuliginea. Then the plants are placed in a greenhouse at approximately 23° C. and a relative atmospheric humidity of approximately 70%.

Alternaria solani = assay: Example C: in vivo preventive test on Alternaria solani (tomato); conditions: 500 ppm of active ingredient, evaluated 7 days after inoculation
Summary of the method: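 Young tomato plants sprayed preventively with compound formulated in DMF/emulsifier and diluted with water, then inoculated one day later with Alternaria solani spores. Plants were held one day at about 22° C, 100% humidity, then at about 20° C, 96% humidity.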

Pyrenophora teres [2] = assay: Example E: in vivo preventive test on Pyrenophora teres (barley), DMF/emulsifier preparation; conditions: 500 ppm of active ingredient, evaluated 7-9 days after inoculation
Summary of the method: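 Young barley plants sprayed preventively with compound formulated in DMF/alkylaryl polyglycol ether emulsifier and diluted in water. One day later inoculated with aqueous Pyrenophora teres spore suspension, then held 48 h at 22 °C and 100% relative humidity.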

[3] = log P by HPLC on reversed-phase column (C 18), EEC Directive 79831 Annex V.A8; type: physicochemical; conditions: HPLC reversed-phase C 18, 40° C., 0.1% aqueous formic acid and acetonitrile gradient; several values = mixture of two or more isomers
Summary of the method: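 Reversed-phase C18 HPLC at 40° C, 0.1% aqueous formic acid/acetonitrile linear gradient 10% to 90% acetonitrile, per EEC Directive 79831 Annex V.A8. log P obtained from retention time by linear interpolation between unbranched alkan-2-ones (C3-C16) of known log P.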

Sphaerotheca fuliginea [4] = assay: Example B: in vivo preventive test on Sphaerotheca fuliginea (powdery mildew on cucurbits), gherkin plants; conditions: 500 ppm of active ingredient, grading 12 days after contamination
Summary of the method: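 Gherkin plants grown at 24 °C were sprayed with compound at the Z11 cotyledon stage; controls received acetone/tween/DMSO/water without active. 24 h later, cotyledons were inoculated by spraying with Sphaerotheca fuliginea spores (100 000 spores per mL).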

Alternaria brassicae = assay: Example D: in vivo preventive test on Alternaria brassicae (leaf spot on radish); conditions: 500 ppm of active ingredient, grading 6 days after contamination
Procedure: In Vivo Preventive Test on Alternaria brassicae (Leaf Spot on Radish) […] Radish plants (“Pernod Clair” variety), sown in starter cups on a 50/50 peat soil pozzolana substrate and grown at 17° C., are treated at the cotyledon stage by spraying with the active ingredient prepared as described above. Plants, used as controls, are treated with the mixture of acetone/tween/DMSO/water not containing the active material. After 24 hours, the plants are contaminated by spraying the cotyledons with an aqueous suspension of Alternaria brassicae spores (50 000 spores per mL). The spores are collected from a 15-day-old culture. The contaminated radish plants are incubated at 20° C. and at 100% relative humidity. Grading (% of efficacy) is carried out 6 days after the contamination, in comparison with the control plants.

Pyrenophora teres [5] = assay: Example F: in vivo preventive test on Pyrenophora teres (barley), acetone/tween/DMSO preparation; conditions: 500 ppm of active ingredient, barley, grading 14 days after contamination
Summary of the method: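 Barley ("Plaisant") grown at 22° C was sprayed at the 1-leaf stage (10 cm) with active ingredient in acetone/tween/DMSO/water, with solvent-only controls. After 24 h, leaves were inoculated with Pyrenophora teres spores (12 000 spores per mL) from 12-day cultures. % efficacy versus controls graded 14 days post-contamination.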

Septoria tritici [6] = assay: Example I: in vivo preventive test on Septoria tritici (wheat), acetone/tween/DMSO preparation; conditions: 500 ppm of active ingredient, grading 24 days after contamination
Summary of the method: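 Scipion wheat grown at 22° C, sprayed at 1-leaf stage (10 cm); controls received acetone/tween/DMSO/water without active. Inoculated 24 h later with S. tritici spores (500 000/mL), held 72 h at 18° C, 100% RH, then 21 days at 90% RH. % efficacy vs controls scored 24 days post-inoculation.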

Puccinia recondita = assay: Example M: in vivo preventive test on Puccinia recondita (brown rust on wheat); conditions: 500 ppm of active ingredient, grading 12 days after contamination
Summary of the method: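 Wheat (Scipion) sprayed with compound at 1-leaf stage, grown at 22° C. Inoculated 24 h later with a spore suspension at 100 000 spores per mL. Efficacy (%) graded 12 days after inoculation against solvent-treated controls.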

Botrytis cinerea = assay: Example P: in vivo preventive test on Botrytis cinerea (grey mould), gherkin plants; conditions: 500 ppm of active ingredient, grading 4 to 5 days after contamination
Procedure: In Vivo Preventive Test on Botrytis cinerea (Grey Mould) […] Gherkin plants (“Vert petit de Paris” variety), sown in starter cups on a 50/50 peat soil pozzolana substrate and grown at 24° C. are treated at the Z11 cotyledon stage by spraying with the active ingredient prepared as described above. Plants, used as controls, are treated with the mixture of acetone/tween/DMSO/water not containing the active material. After 24 hours, the plants are contaminated by spraying the cotyledons with an aqueous suspension of cryopreserved Botrytis cinerea spores (50 000 spores per mL). The spores are suspended in a nutrient solution composed of 10 g/L of PDB, 50 g/L of D-Fructose, 2 g/L of NH4NO3 and 1 g/L of KH2PO4. The contaminated gherkin plants are incubated at 17° C. and at 90% relative humidity. Grading (% of efficacy) is carried out 4 to 5 days after the contamination, in comparison with the control plants.

Uromyces appendiculatus = assay: Example Q: in vivo preventive test on Uromyces appendiculatus (bean rust); conditions: Uromyces appendiculatus on bean plants, 500 ppm of active ingredient, grading 11 days after contamination
Procedure: In Vivo Preventive Test on Uromyces appendiculatus (Bean Rust) […] Bean plants (“Saxa” variety), sown in starter cups on a 50/50 peat soil pozzolana substrate and grown at 24° C., are treated at the 2 leaf stage (9 cm height) by spraying with the active ingredient prepared as described above. Plants, used as controls, are treated with the mixture of acetone/tween/DMSO/water not containing the active material. After 24 hours, the plants are contaminated by spraying the leaves with an aqueous suspension of Uromyces appendiculatus spores (150 000 spores per mL). The spores are collected from infected plants and are suspended in water containing 2.5 mL/L of Tween 80 at 10%. […] Grading (% of efficacy) is carried out 11 days after the contamination, in comparison with the control plants.

Septoria tritici [7] = assay: Example H: in vivo preventive test on Septoria tritici (wheat), N,N-dimethylacetamide/emulsifier preparation; conditions: 500 ppm of active ingredient, evaluated 21 days after inoculation
Procedure: (§1) In Vivo Preventive Test on Septoria tritici (Wheat) Solvent: 49 parts by weight of N,N-dimethylacetamide Emulsifier: 1 part by weight of alkylaryl polyglycol ether To produce a suitable preparation of active compound, 1 part by weight of active compound or active compound combination is mixed with the stated amounts of solvent and emulsifier, and the concentrate is diluted with water to the desired concentration. To test for preventive activity, young plants are sprayed with the preparation of active compound or active compound combination at the stated rate of application. After the spray coating has been dried, the plants are sprayed with a spore suspension of Septoria tritici. The plants remain for 48 hours in an incubation cabinet at approximately 20° C. and a relative atmospheric humidity of approximately 100% and afterwards for 60 hours at approximately 15° C. in a translucent incubation cabinet at a relative atmospheric humidity of approximately 100%.

[8] = system: Blumeria graminis f.sp. hordei; assay: Example J: in vivo preventive test on Blumeria graminis (barley); conditions: 500 ppm of active ingredient, evaluated 7 days after inoculation
Procedure: In Vivo Preventive Test on Blumeria graminis (Barley) Solvent: 49 parts by weight of N,N-dimethylacetamide Emulsifier: 1 part by weight of alkylaryl polyglycol ether To produce a suitable preparation of active compound, 1 part by weight of active compound or active compound combination is mixed with the stated amounts of solvent and emulsifier, and the concentrate is diluted with water to the desired concentration. To test for preventive activity, young plants are sprayed with the preparation of active compound or active compound combination at the stated rate of application. After the spray coating has been dried, the plants are dusted with spores of Blumeria graminis f.sp. hordei.

Leptosphaeria nodorum = assay: Example K: in vivo preventive test on Leptosphaeria nodorum (wheat); conditions: 500 ppm of active ingredient, evaluated 8 days after inoculation
Procedure: as §1, with “Leptosphaeria nodorum” for “Septoria tritici”, “Leptosphaeria nodorum.” for “Septoria tritici.”, “approximately” for “approximately 100% and afterwards for 60 hours at approximately 15° C. in a translucent incubation cabinet at a relative atmospheric humidity of approximately”

SMILES | Efficacy (Sphaerotheca fuliginea [1]) | Efficacy (Alternaria solani) | Efficacy (Pyrenophora teres [2]) | logP [3] | Efficacy (Sphaerotheca fuliginea [4]) | Efficacy (Alternaria brassicae) | Efficacy (Pyrenophora teres [5]) | Efficacy (Septoria tritici [6]) | Efficacy (Puccinia recondita) | Efficacy (Botrytis cinerea) | Efficacy (Uromyces appendiculatus) | Efficacy (Septoria tritici [7]) | Efficacy [8] | Efficacy (Leptosphaeria nodorum)
CCc1nn(C)c(F)c1C(=O)N(C1CC1)C(C)C1CC2CCC1C2 (mixture of isomers) [Example 95] | 95% | 100% | 100% |  |  |  |  |  |  |  |  |  |  | 
Cn1nc(C(F)F)c(C(=O)N(CC2CCCC3CCCCC32)C2CC2)c1F (stereo not drawn) [Example 65] |  |  |  | 4.90 | 100% | 100% | 100% | 100% | 100% | 100% | 100% |  |  | 
CC1C(CNC(=S)c2c(C(F)F)nn(C)c2F)CC2CC1C2(C)C (stereo not drawn) [Example 82] | 93% | 90% | 95% | 4.82 |  |  |  |  |  |  |  |  |  | 
CC1C(CN(C(=O)c2c(C(F)F)nn(C)c2F)C2CC2)CC2CC1C2(C)C (stereo not drawn) [Example 77] | 100% | 95% | 100% | 4.69 |  |  |  |  |  |  |  |  |  | 
CCc1nn(C)c(F)c1C(=O)N(C1CC1)C(C)C12CC3CC(CC(C3)C1)C2 (stereo not drawn) [Example 104] | 96% | 95% | 95% | 4.86 |  |  |  |  |  |  |  | 90% | 78% | 83%
Cn1nc(C(F)F)c(C(=O)NCC2CCC3CC2C3(C)C)c1Cl (stereo not drawn) [Example 83] | 90% | 95% | 100% | 3.85 |  |  |  |  |  |  |  |  |  | 
Cc1nn(C)c(F)c1C(=O)N(C1CC1)C(C)C1CC2CCC1C2 (stereo not drawn) [Example 96] | 95% | 100% | 100% | 3.46 |  |  |  |  |  |  |  |  |  | 
Cn1nc(C(F)F)c(C(=O)NC2CCC3CCCC32)c1Cl (stereo not drawn) [Example 3] |  |  |  | 3.09 |  | 90% |  | 92% | 75% | 95% | 100% |  |  | 
CC1CC(C)(C)C2CCCC(NC(=S)c3c(C(F)F)nn(C)c3F)C12 (mixture of isomers) [Example 18] | 83% | 80% | 95% |  |  |  |  |  |  |  |  |  |  | 
Cc1nn(C)c(F)c1C(=S)N(C1CC1)C(C)C1CC2CCC1C2 (stereo not drawn) [Example 98] | 93% | 95% | 100% | 4.34 |  |  |  |  |  |  |  |  |  | 
CC1C(CN(C(=O)c2cn(C)nc2C(F)F)C2CC2)CC2CC1C2(C)C (stereo not drawn) [Example 78] | 95% | 100% | 100% | 4.21 |  |  |  |  |  |  |  |  |  | 
Cn1cc(C(=O)N(CC2CCCC3CCCCC32)C2CC2)c(C(F)F)n1 (stereo not drawn) [Example 66] |  |  |  | 4.37 | 100% | 96% | 100% | 100% | 94% | 99% | 88% |  |  | 
CC(C1CC2C=CC1C2)N(C(=O)c1cn(C)nc1C(F)F)C1CC1 (mixture of isomers) [Example 102] |  |  |  |  | 100% | 92% | 100% | 75% | 90% | 95% | 92% |  |  | 
Cn1nc(C(F)F)c(C(=O)NC2CCCC3CCCCC32)c1F (stereo not drawn) [Example 25] | 88% | 100% | 95% | 3.60 | 100% |  | 86% | 96% | 100% |  | 80% |  |  | 
